Assay results taken from patent US20240325336A1, “COMBINATION THERAPIES COMPRISING OXYGEN-CONTAINING STRUCTURALLY ENHANCED FATTY ACIDS FOR TREATMENT OF NON-ALCOHOLIC STEATOHEPATITIS” (NORTHSEA THERAPEUTICS B.V., priority 2020, published 2024).
Entries after “also recorded” stand apart in the source; their conditions may differ.

Key:
[1] = CDAA/high-fat diet NASH mouse model: relative body weight and liver weight; format: in vivo; settings: CDAA-HFD mice, 8 weeks QD; for liver weight: compared to untreated vehicle group (FIG. 1B)
Description: (§1) Although the widely used methionine-choline deficient (MCD) diet consistently reproduces severe NASH-like hepatic inflammation and fibrosis in mice, it is also associated with severe weight-loss (loss of both skeletal muscle and fat mass). This is associated with an increased risk of death which presents major problems for long-term fibrogenesis experiments. […] In the current study, male mice (strain C57BI/6JRj) were fed choline deficient high-fat diets (45% of total calories from fat; “CDAA/high-fat” or “CDAA-HFD”). The NASH inducing diet was instigated 6 weeks prior to the commencement of administration of active agents in order to evaluate treatment and reversal of NASH parameters. The NASH inducing CDAA-HFD was continued for the 8 weeks of administration of the indicated active agents and combinations thereof.
(§2) The aim of this study was to evaluate the effects of 8 weeks of administration of Compound A, OCA, semaglutide, and firsocostat alone and in combination on metabolic parameters, hepatic pathology, and on NAFLD Activity Score including Fibrosis Stage in male CDAA-HFD mice.
(§3) Prior to administration of the activate agents, animals were randomized into treatment groups based on body weight. A baseline group (n=12) was terminated at study start after 6 weeks on the CDAA-HFD diet. CDAA-HFD fed mice (n=10-12 per group) received daily per oral (PO) treatment with vehicle, Compound A (112 mg/kg), OCA (30 mg/kg), semaglutide (30 nmol/kg SC), firsocostat (5 mg/kg), Compound A+Semaglutide (112 mg/kg+30 nmol/kg), Compound A+OCA (112 mg/kg+30 mg/kg), and Compound A+firsocostat (112 mg/kg+5 mg/kg) for 8 weeks. Terminal liver biopsy were analyzed for histopathological scores. Terminal quantitative endpoints included plasma/liver biochemistry and liver histomorphometry.

male CDAA-HFD mice [2] = experiment: CDAA/high-fat diet NASH mouse model: plasma triglycerides and total cholesterol; format: in vivo; settings: 8 weeks QD, compared to untreated vehicle group (FIG. 3A)
Description: as §1, §2
Prior to administration of the activate agents, animals were randomized into treatment groups based on body weight. […] Terminal liver biopsy were analyzed for histopathological scores. Terminal quantitative endpoints included plasma/liver biochemistry and liver histomorphometry.

male CDAA-HFD mice [3] = experiment: CDAA/high-fat diet NASH mouse model: liver total cholesterol and triglycerides; format: in vivo; settings: 8 weeks QD; for relative levels of liver total cholesterol (normalized to liver weight): compared to untreated vehicle group (FIG. 4A); for relative levels of liver triglycerides (normalized to liver weight): compared to untreated vehicle group (FIG. 4B)
Description: as §1, §2, §3

male CDAA-HFD mice [4] = experiment: CDAA/high-fat diet NASH mouse model: hepatic steatosis (H&E image analysis, steatosis score); format: in vivo; settings: 8 weeks QD; for percentage of hepatocytes with lipid droplets: compared to untreated vehicle group (FIG. 5B); for steatosis scores: compared to untreated vehicle group (FIG. 6); for hepatic steatosis area (relative liver lipids): compared to untreated vehicle group (FIG. 5A)
Description: as §1, §3
(§4) Liver samples stained with Hematoxylin and Eosin (H&E) or Picro Sirius Red (PSR) were scored for NAS components (steatosis, lobular inflammation, and ballooning degeneration) and fibrosis stage respectively using the clinical criteria outlined by Kleiner et al., Hepatology, 2005; 41. Total NAS represents the sum of scores for steatosis, inflammation, and ballooning, and ranges from 0-8.
(§5) NAS and fibrosis stage was determined by deep learning applications developed by Gubra (Denmark) using the VIS software (Visiopharm®, Denmark) for a more accurate and objective method for staging disease in DIO-NASH mouse models.
(§6) Scanned H&E stained slides were analyzed in several steps: • 1. Tissue detection at low magnification, followed by deep learning-based detection of portal triads and central veins at 10× magnification. • 2. Another deep learning application detected nuclei of hepatocytes with lipid droplets, hepatocytes without lipids, ballooned hepatocytes, and inflammatory cells at 20× magnification. Inflammatory foci were defined as a cluster of >3 inflammatory cells. • 3. The inflammation score of the liver tissue sample was the average score for all 20× fields.
Steatosis score was calculated as percentage of hepatocytes with lipid droplets.
Hepatic steatosis area (relative liver lipids) was quantified on H&E stained slides by image analysis using the VIS software (Visiopharm®, Denmark). VIS protocols are designed to analyze the virtual slides in two steps: • 1. Tissue detection at low magnification (1× objective); and • 2. Detection of steatosis and tissue at high magnification (20× objective).
The quantitative estimates of steatosis were calculated as an area fraction as follows: […]

male CDAA-HFD mice [5] = experiment: CDAA/high-fat diet NASH mouse model: hepatic inflammation and NAFLD activity score; format: in vivo; settings: 8 weeks QD; for NAFLD activity scores (NAS): compared to untreated vehicle group (FIG. 8B); for number of inflammatory cells (per mm^2): compared to untreated vehicle group and to baseline levels (FIG. 7A); for inflammatory foci (per mm^2): compared to untreated vehicle group and to baseline levels (FIG. 7B)
Description: as §1, §3, §4, §5, §6

male CDAA-HFD mice [6] = experiment: CDAA/high-fat diet NASH mouse model: hepatic fibrosis markers (hydroxyproline, galectin-3, PSR, α-SMA); format: in vivo; settings: 8 weeks QD; for galectin-3 hepatic fractional area: compared to untreated vehicle group (FIG. 9B); for hepatic fibrotic area determined by PSR staining: compared to untreated vehicle group (FIG. 10A); for sinusoidal fibrotic area (PSR): compared to untreated vehicle group (FIG. 10B)
Description: as §1, §3
Scanned PSR stained slides were analyzed in several steps: • 1. Tissue detection at low magnification, followed by deep learning-based detection of portal triads and central veins at 10× magnification. Periportal zone was defined as 100 μm around the portal triads. • 2. Fibrosis fibers were detected using the linear Bayesian image analysis method in the periportal and sinusoidal zones. • 3. Bridging was detected using threshold image analysis based on a polynomial local linear filter feature. • 4. Different measures of size, shape and connectivity form both fibrosis and bridging fibrosis in the two zoned were used in a XGBoost classifier to predict fibrosis stage.
Immunohistochemistry (IHC)-positive staining was quantified by image analysis using the VIS software (Visiopharm®, Denmark) using two steps: • 1. Detection of tissue at low magnification (1× objective), excluding the liver capsule; and • 2. Detection of IHC-positive staining.
The quantitation of IHC-positive staining is calculated as an area fraction as follows: […]
IHC factional area quantification was assessed for galectin-3, collagen 1A1, and α-smooth muscle actin.
Hepatic factional area assessment with picrosirius red stain was determined using the same methods.
Hepatic fibrotic area was determined by staining with picrosirus red (PSR), which binds collagen, and histological quantitative assessment.

rodent NASH models = settings: APOE*3Leiden.CETP high-fat diet, ob/ob AMLN, STAM and CDAA/high-fat diet mouse models; WO2019111048; cited from earlier work
APOE*3Leiden.CETP mice = settings: WO2016173923A1, cited from earlier work

## CC/C=C\C/C=C\C/C=C\C/C=C\C/C=C\CCCCOC(CC)C(=O)O (centres unmarked) [Compound A, 2-((5Z,8Z,11Z,14Z,17Z)-icosa-5,8,11,14,17-pentaenyloxy)butanoic acid]
[1]
  liver weight: decreased
Male CDAA-HFD mice [2]
  plasma triglycerides: significantly decreased
Male CDAA-HFD mice [3]
  relative levels of liver total cholesterol (normalized to liver weight): significant decrease
  relative levels of liver triglycerides (normalized to liver weight): significant decrease
Male CDAA-HFD mice [4]
  percentage of hepatocytes with lipid droplets: significantly decreased
  steatosis scores: decreased
Male CDAA-HFD mice [5]
  NAFLD activity scores (NAS): significantly decreased
  number of inflammatory cells (per mm^2): significant decrease; also recorded: below the baseline level
  inflammatory foci (per mm^2): significant decrease; also recorded: below the baseline level
Male CDAA-HFD mice [6]
  galectin-3 hepatic fractional area: significantly decreased
  hepatic fibrotic area determined by PSR staining: significantly decreased
  sinusoidal fibrotic area (PSR): Neither compound alone had a significant effect
Male CDAA-HFD mice [6]; compared to untreated vehicle group (FIG. 11B)
  hepatic area expressing α-SMA: neither Compound A nor OCA significantly affecting
Rodent NASH models
  effect on aspects of NASH (hepatic steatosis, inflammation, fibrosis): address multiple aspects of NASH, including hepatic steatosis, inflammation, and fibrosis

## CC/C=C\C/C=C\C/C=C\C/C=C\C/C=C\CCCCSC(CC)(CC)C(=O)O [Compound N, 2-ethyl-2-((5Z,8Z,11Z,14Z,17Z)-icosa-5,8,11,14,17-pentaenylthio)butanoic acid]
APOE*3Leiden.CETP mice; APOE*3Leiden.CETP mice
  fibrosis (as measured by hydroxyproline/proline ratio): effective in reducing fibrosis
APOE*3Leiden.CETP mice
  influx of inflammatory cells into the liver: prevented
  preventing diet-induced hepatic fibrosis, compared with rosiglitazone: superior to rosiglitazone

## COc1ccccc1[C@H](Cn1c(=O)n(C(C)(C)C(=O)O)c(=O)c2c(C)c(-c3ncco3)sc21)OC1CCOCC1 [firsocostat]
Male CDAA-HFD mice [4]
  hepatic steatosis area (relative liver lipids): significantly greater
  percentage of hepatocytes with lipid droplets: significantly decreased
  steatosis scores: decreased
Male CDAA-HFD mice [5]
  NAFLD activity scores (NAS): significantly decreased
Male CDAA-HFD mice [6]
  galectin-3 hepatic fractional area: neither semaglutidue nor firsocostat having a significant effect

## semaglutide
[1]
  liver weight: decreased
[1]; compared to vehicle (FIG. 1A)
  last recorded relative body weight: decreased
Male CDAA-HFD mice [3]
  relative levels of liver total cholesterol (normalized to liver weight): did not significantly affect
  relative levels of liver triglycerides (normalized to liver weight): not significantly affecting
Male CDAA-HFD mice [4]
  hepatic steatosis area (relative liver lipids): not significantly affecting either parameter; also recorded: did not have a significant effect
  percentage of hepatocytes with lipid droplets: not significantly affecting either parameter; also recorded: did not significantly affect
Male CDAA-HFD mice [5]
  number of inflammatory cells (per mm^2): not having a significant effect
  inflammatory foci (per mm^2): not having a significant effect
Male CDAA-HFD mice [6]
  galectin-3 hepatic fractional area: not having a significant effect
  hepatic fibrotic area determined by PSR staining: did not significantly affect
  sinusoidal fibrotic area (PSR): Neither compound alone had a significant effect
Male CDAA-HFD mice [6]; listed as semaglutidue
  galectin-3 hepatic fractional area: neither semaglutidue nor firsocostat having a significant effect
Male CDAA-HFD mice [6]; vs baseline (6 weeks CDAA-HFD, before therapy) (FIG. 9B)
  galectin-3 expressing area compared to baseline: significantly increased
